According to patent US20080280933A1, “BENZIMIDAZOLYL COMPOUNDS” (priority 2006, published 2008):

biological target: T1, mGluR2 receptor (metabotropic glutamate receptor 2) (Homo sapiens, UniProt Q14416); test: mGluR2 Potentiator Screen, FLIPR, EC10-EC20 glutamate challenge; type: cell-based; settings: mGluR2 potentiator screen, Table 7; read-out: EC50
T1 construct: expressed in transfected cells
Procedure, shortened: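 HEK cells stably co-expressing mGluR2 and Gα15, kept glutamine-free overnight, were loaded with Fluo-4 plus probenecid and GPT/pyruvate. Compounds (top 10 μM) were added ≥30 min before an EC10–EC20 glutamate challenge. Peak FLIPR fluorescence ratios were curve-fitted, excluding points above maximal effect, with maxima from on-plate standards.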

T1 sequence (Q14416 19-872, species assumed): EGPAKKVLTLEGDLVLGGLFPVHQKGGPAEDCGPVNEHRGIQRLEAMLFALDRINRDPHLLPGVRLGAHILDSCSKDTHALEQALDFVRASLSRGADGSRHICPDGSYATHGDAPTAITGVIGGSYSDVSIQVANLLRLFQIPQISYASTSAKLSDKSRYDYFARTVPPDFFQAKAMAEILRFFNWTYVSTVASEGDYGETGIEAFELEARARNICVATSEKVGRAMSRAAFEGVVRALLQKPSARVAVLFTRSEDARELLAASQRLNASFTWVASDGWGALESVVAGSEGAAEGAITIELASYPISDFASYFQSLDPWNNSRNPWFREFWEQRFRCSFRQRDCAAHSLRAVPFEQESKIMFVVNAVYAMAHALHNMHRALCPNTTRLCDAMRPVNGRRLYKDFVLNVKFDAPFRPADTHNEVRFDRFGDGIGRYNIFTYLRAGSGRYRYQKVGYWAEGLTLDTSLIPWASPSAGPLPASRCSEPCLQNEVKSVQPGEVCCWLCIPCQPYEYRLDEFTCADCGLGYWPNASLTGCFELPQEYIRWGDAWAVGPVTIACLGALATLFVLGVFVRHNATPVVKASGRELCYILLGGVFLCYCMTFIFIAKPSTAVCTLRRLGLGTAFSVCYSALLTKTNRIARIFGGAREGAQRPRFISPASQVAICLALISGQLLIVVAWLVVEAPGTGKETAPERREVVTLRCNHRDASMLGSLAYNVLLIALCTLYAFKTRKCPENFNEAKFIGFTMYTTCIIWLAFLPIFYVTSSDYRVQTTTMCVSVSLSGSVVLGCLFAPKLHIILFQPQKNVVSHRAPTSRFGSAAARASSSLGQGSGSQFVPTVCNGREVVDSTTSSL

First: CC1CC1COc1ccc(Cl)cc1C1CCN(Cc2nc3ccccc3n2C)CC1 (stereo not drawn) [compound 199]
Second: CC1CC1COc1ccc(Cl)cc1C1CCN(Cc2nc3ccccc3n2CF)CC1 (stereo not drawn) [compound 197]
The EC50 of the first is 8.4-fold lower: 390 nM for the first, 3260 nM for the second.

Compared with COc1cccc2c1CC[C@H]1CN(Cc3nc4ccccc4n3C)CC[C@H]21 [compound 171], COc1ccc(OC)c(C2CCN(Cc3nc4ccccc4n3C)CC2)c1 [compound 163] is 8.1-fold lower in EC50: 7550 nM for the first, 928 nM for the second. The second is the more potent here.

Compared with COCCn1c(CN2CCC(c3cc(Cl)ccc3OCC(C)C)CC2)nc2ccccc21 [compound 180], COCCn1c(CN2CCC(c3cc(Cl)ccc3OCCC3CC3)CC2)nc2ccccc21 [compound 191] is 22-fold lower in EC50: 3020 nM for the first, 136 nM for the second. The second is the more potent here.

Compared with Cn1c(CN2CCC(c3cc(Cl)ccc3OCC3CCOC3)CC2)nc2ccccc21 (stereo not drawn) [compound 203], COCCn1c(CN2CCC(c3cc(Cl)ccc3OCC3CCOC3)CC2)nc2ccccc21 (stereo not drawn) [compound 205] is 4.7-fold higher in EC50: 712 nM for the first, 3350 nM for the second.

First: Cn1c(CN2CCC(c3cccc(C(F)(F)F)c3)C(O)C2)nc2ccccc21 (stereo not drawn) [compound 167]
Second: Cn1c(CN2CCC(c3cccc(C(F)(F)F)c3)CC2)nc2ccccc21 [compound 162]
The EC50 of the first is 17-fold higher: 4380 nM for the first, 254 nM for the second. The second is the more potent here.

Going from FCn1c(CN2CCC(c3cc(Cl)ccc3OCCC3CC3)CC2)nc2ccccc21 [compound 188] to CC1(COc2ccc(Cl)cc2C2CCN(Cc3nc4ccccc4n3CF)CC2)COC1 [compound 211], the EC50 rises from 566 nM to 8220 nM (15-fold). The first is the more potent here.

Compared with CCOc1ccc(Cl)cc1C1CCN(Cc2nc3ccccc3n2C)CC1 [compound 224], CC1CC1COc1ccc(Cl)cc1C1CCN(Cc2nc3ccccc3n2C2CC2)CC1 (stereo not drawn) [compound 198] is 1.9-fold lower in EC50: 4260 nM for the first, 2250 nM for the second.

First: COC(=O)[C@H]1CN(Cc2nc3ccccc3n2C)C[C@@H]1c1ccc(C(F)(F)F)cc1 [compound 153]
Second: FCCn1c(CN2CCC(c3cc(Cl)ccc3OCC3CCCCO3)CC2)nc2ccccc21 (stereo not drawn) [compound 217]
The EC50 of the first is 4.1-fold higher: 4790 nM for the first, 1180 nM for the second. The second is the more potent here.

Work on Clc1ccc(OCC2CCCCO2)c(C2CCN(Cc3nc4ccccc4n3C3CC3)CC2)c1 (stereo not drawn) [compound 214] yielded an EC50 of 2010 nM.

same assay, conditions: read-out: EC50

Compared with Cn1c(CN2CC[C@@H](c3ccc(F)cc3)[C@H](COc3ccc4c(c3)OCO4)C2)nc2ccccc21 [compound 410], Cn1c(CN2CCC(c3ccc(C(F)(F)F)cc3)CC2)nc2cc(F)ccc21 [compound 350] is 36-fold lower in EC50: 5260 nM for the first, 147 nM for the second.

First: Cn1c(CN2CCC3(CC2)CN(Cc2ccccc2)c2ccccc23)nc2ccccc21 [compound 109]
Second: Cn1c(CN2CCC(c3ccccc3OC(F)(F)F)CC2)nc2ccccc21 [compound 413]
The EC50 of the first is 67-fold higher: 5220 nM for the first, 77.6 nM for the second. The second is the more potent here.

Compared with Cn1c(CN2CCC(c3ccccc3F)CC2)nc2cc(F)c(F)cc21 [compound 259], COCCn1c(CN2CCC(c3cc(C(F)(F)F)ccc3OC)CC2)nc2ccccc21 [compound 323] is 2.1-fold higher in EC50: 468 nM for the first, 984 nM for the second. The first is the more potent here.

First: CCCN(CC1CC1)C(=O)c1cccc(C2CCN(Cc3nc4ccccc4n3C)CC2)c1 [compound 436]
Second: Cn1c(CN2CCC(c3cc(C(F)(F)F)ccc3F)CC2)nc2cc(F)ccc21 [compound 375]
The EC50 of the first is 6.4-fold higher: 2210 nM for the first, 348 nM for the second.

Going from CCC(=O)N1CC2(CCN(Cc3nc4ccccc4n3C)CC2)c2cc(Cl)ccc21 [compound 27] to Cc1ccc2c(c1)nc(CN1CCC(c3ccccc3F)CC1)n2C [compound 273], the EC50 falls from 1060 nM to 79.7 nM (13-fold). The second is the more potent here.

First: COCn1c(CN2CCC(c3cc(C(F)(F)F)ccc3F)CC2)nc2ccccc21 [compound 330]
Second: COC(=O)CCCC(=O)N1CC2(CCN(Cc3nc4ccccc4n3C)CC2)c2cc(C)ccc21 [compound 32]
The EC50 of the first is 1.9-fold lower: 969 nM for the first, 1850 nM for the second. The first is the more potent here.

Going from COc1ccccc1C1CCN(Cc2nc3cccc(F)c3n2C)CC1 [compound 343] to Cn1c(CN2CCC(c3ccccc3)CC2)nc2ccccc21 [compound 74], the EC50 rises from 16.6 nM to 212 nM (13-fold). The first is the more potent here.

First: CC(C)Oc1ccccc1C1CCN(Cc2nc3cc(C#N)ccc3n2C)CC1 [compound 402]
Second: COc1ccc(C(F)(F)F)cc1C1CCN(Cc2nc3cc(F)c(F)cc3n2C)CC1 [compound 321]
The EC50 of the first is 2.9-fold lower: 523 nM for the first, 1510 nM for the second.

Going from Cc1cc(C)cc(C2CCN(Cc3nc4ccccc4n3C)CC2)c1 [compound 302] to “5-(2-Methoxy-phenyl)-1-(1-methyl-1H-benzoimidazol-2-ylmethyl)-azepan-2-one [Entry 291]”, the EC50 rises from 37.4 nM to 916 nM (24-fold).

Compared with CC(=O)N1CC2(CCN(Cc3nc4ccccc4n3C)CC2)c2cc(F)ccc21 [compound 19], Cn1c(CN2CCC3(CC2)CN(C(=O)COc2ccccc2)c2ccccc23)nc2ccccc21 [compound 57] is 9.4-fold lower in EC50: 4790 nM for the first, 508 nM for the second. The second is the more potent here.

First: Cn1c(CN2CCC3(CC2)CN(Cc2cccnc2)c2ccccc23)nc2ccccc21 [compound 112]
Second: COc1cc(C(F)(F)F)ccc1C1CCN(Cc2nc3ccccc3n2C)CC1 [compound 355]
The EC50 of the first is higher: over 9880 nM for the first, 66.7 nM for the second. The second is the more potent here.

First: CCCCN1CC2(CCN(Cc3nc4ccccc4n3C)CC2)c2cc(F)ccc21 [compound 140]
Second: COc1cc(C(F)(F)F)ccc1C1CCN(Cc2nc3c(F)cccc3n2C)CC1 [compound 399]
The EC50 of the first is higher: 2120 nM for the first, under 12.4 nM for the second. The second is the more potent here.

Compared with Fc1ccc(C(F)(F)F)cc1C1CCN(Cc2nc3ccccc3n2C2CC2)CC1 [compound 327], Cn1c(CN2CCC(c3ccccc3F)CC2)nc2cc(C(C)(C)O)ccc21 [Entry 298, 2-(2-((4-(2-fluorophenyl)piperidin-1-yl)methyl)-1-methyl-1H-benzo[d]imidazol-5-yl)propan-2-ol] is higher in EC50: 1980 nM for the first, over 7340 nM for the second. The first is the more potent here.

Going from CC(C)OCCOc1ccccc1C1CCN(Cc2nc3ccccc3n2C)CC1 [compound 87] to Cn1c(CN2CCC(c3ccccc3F)CC2)nc2cc(-c3ccccc3)ccc21 [compound 280], the EC50 falls from 621 nM to 176 nM (3.5-fold). The second is the more potent here.

First: CCOCCCOc1ccccc1C1CCN(Cc2nc3ccccc3n2C)CC1 [compound 91]
Second: Cn1c(CN2CCC(c3ccc(C(F)(F)F)cc3)CCC2=O)nc2ccccc21 (stereo not drawn) [compound 290]
The EC50 of the first is 4.1-fold lower: 1400 nM for the first, 5720 nM for the second.

Going from Cn1c(CN2CCC3(CC2)CN(C(=O)C2CCC2)c2ccccc23)nc2ccccc21 [compound 60] to Cn1c(CN2CCC3(CC2)CN(C(=O)C2CC2)c2ccccc23)nc2ccccc21 [compound 61], the EC50 rises from 2220 nM to 4010 nM (1.8-fold). The first is the more potent here.

Compared with Cn1c(CN2CCC(c3ccc(F)c(Cl)c3)CC2)nc2cc(F)ccc21 [compound 447], Cn1c(CN2CCC(c3ccc(C(F)(F)F)cc3)CC2)nc2cccc(F)c21 [compound 341] is 14-fold higher in EC50: 45.6 nM for the first, 633 nM for the second. The first is the more potent here.

Going from CC(O)c1ccccc1C1CCN(Cc2nc3ccccc3n2C)CC1 (stereo not drawn) [compound 313] to CN1CC2(CCN(Cc3nc4ccccc4n3C)CC2)c2cc(Cl)ccc21 [compound 131], the EC50 rises from 361 nM to 1760 nM (4.9-fold). The first is the more potent here.

CCOc1ccc(Cl)cc1C1CCN(Cc2nc3ccccc3n2CCF)CC1 [compound 227] and Cn1c(CN2CCC(c3ccccc3F)CC2)nc2ccc(C#N)cc21 [Entry 275, 2-((4-(2-Fluorophenyl)piperidin-1-yl)methyl)-3-methyl-3H-benzo[d]imidazole-5-carbonitrile] are within 1.5-fold of each other in EC50: 210 nM for the first, 211 nM for the second.

Going from COCCn1c(CN2CCC(c3ccccc3C(F)(F)F)CC2)nc2ccccc21 [compound 250] to Cc1noc(C)c1C(=O)N1CC2(CCN(Cc3nc4ccccc4n3C)CC2)c2cc(Cl)ccc21 [compound 39], the EC50 rises from 545 nM to 2830 nM (5.2-fold). The first is the more potent here.

Compared with Cc1cc(C)c2c(c1)C1(CCN(Cc3nc4ccccc4n3C)CC1)CN2CCC(C)C [compound 121], COc1ccccc1C1CCN(Cc2nc3c(F)cccc3n2C)CC1 [compound 271] is 55-fold lower in EC50: 1150 nM for the first, 21.1 nM for the second. The second is the more potent here.

First: Cn1c(CN2CCC(F)(c3ccc(C(F)(F)F)cc3)CC2)nc2ccccc21 [compound 433]
Second: Fc1ccc(C2CCN(Cc3nc4ccccc4n3C3CC3)CC2)cc1 [compound 369]
The EC50 of the first is 15-fold lower: 122 nM for the first, 1770 nM for the second. The first is the more potent here.

First: C#CCOc1ccc(Cl)cc1C1CCN(Cc2nc3ccccc3n2CCOC)CC1 [compound 239]
Second: COc1ccccc1C1CCN(Cc2nc3cc(F)ccc3n2C)CC1 [compound 284]
The EC50 of the first is 2-fold higher: 79 nM for the first, 39.4 nM for the second.

First: COc1ccc(-c2ccc3nc(CN4CCC(c5ccccc5F)CC4)n(C)c3c2)cn1 [compound 277]
Second: Cn1c(CN2CCC3(CC2)CN(C(=O)C2CC2)c2ccc(Cl)cc23)nc2ccccc21 [compound 45]
The EC50 of the first is 25-fold lower: 44.6 nM for the first, 1120 nM for the second.

Compared with Cn1c(CN2CCC3(CC2)CN(C(=O)c2ccc4nccnc4c2)c2ccccc23)nc2ccccc21 [compound 48], COc1ccc(C(F)(F)F)cc1C1CCN(Cc2nc3cc(C#N)ccc3n2C)CC1 [compound 388] is lower in EC50: over 6630 nM for the first, 583 nM for the second.

Going from COc1ccccc1[C@]1(C)CCN(Cc2nc3ccccc3n2C2CC2)C[C@@H]1C [compound 322] to Cn1c(CN2CCC(c3ccccc3F)CC2)nc2ccc(Br)cc21 [compound 274], the EC50 falls from 9930 nM to 318 nM (31-fold). The second is the more potent here.

First: Cc1nnsc1C(=O)N1CC2(CCN(Cc3nc4ccccc4n3C)CC2)c2cc(F)ccc21 [compound 18]
Second: CC(C)CN1CC2(CCN(Cc3nc4ccccc4n3C)CC2)c2cc(Cl)ccc21 [compound 113]
The EC50 of the first is 1.8-fold lower: 2450 nM for the first, 4370 nM for the second. The first is the more potent here.

Compared with COc1ccccc1C1(OC)CCN(Cc2nc3c(Br)cccc3n2C)CC1C (stereo not drawn) [compound 333], CCOc1ccc(Cl)cc1C1CCN(Cc2nc3ccccc3n2C2CC2)CC1 [compound 225] is 4.8-fold lower in EC50: 4760 nM for the first, 999 nM for the second.

Going from Cn1c(CN2CCC(c3ccccc3C(F)(F)F)CC2)nc2ccccc21 [compound 257] to Cn1c(CN2CCC(c3cc(Cl)ccc3F)CC2)nc2cc(F)ccc21 [compound 372], the EC50 rises from 109 nM to 308 nM (2.8-fold). The first is the more potent here.

Compared with Cn1c(CN2CCCC(c3ccccc3F)CC2)nc2ccccc21 (stereo not drawn) [compound 306], Cn1c(CN2CCC(c3ccccc3F)CC2)nc2cccc(-c3ccccc3)c21 [compound 308] is 11-fold lower in EC50: 1590 nM for the first, 151 nM for the second. The second is the more potent here.

Compared with Cc1ccc2c(c1)C1(CCN(Cc3nc4ccccc4n3C)CC1)CN2CCC(C)C [compound 120], Cn1c(CN2CCC(c3ccccc3F)CC2)nc2cc(C#N)ccc21 [Entry 272, 2-((4-(2-Fluorophenyl)piperidin-1-yl)methyl)-1-methyl-1H-benzo[d]imidazole-5-carbonitrile] is 37-fold lower in EC50: 2700 nM for the first, 73 nM for the second. The second is the more potent here.

Cn1c(CN2CCC(c3ccccc3C#N)CC2)nc2ccccc21 [compound 416] and C[C@@H]1CN(Cc2nc3ccccc3n2C)CC[C@@H]1c1ccc(F)c(Cl)c1 (relative stereo) [compound 456] are within 1.5-fold of each other in EC50: 168 nM for the first, 181 nM for the second.
